ChEMBL document CHEMBL1201862, “PubChem BioAssay data set” (2004)
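Assay format: 96-well plates, 48-hour exposure. GI50 marks 50% less growth.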 Calls of active or inactive are those of the source. No stated cut-off is given here; in the data, active = GI50 up to about 1.1 µM and inactive = higher.

Assays:
Test in all cases: NCI tumour cell line growth inhibition, 48 h
RXF 393 = tested on: RXF 393
EKVX = tested on: EKVX
UO-31 = tested on: UO-31
TK-10 = tested on: TK-10
HT-29 = tested on: HT-29
786-0 = tested on: 786-0
Malme-3M = tested on: Malme-3M
CAKI-1 = tested on: CAKI-1
UACC-62 = tested on: UACC-62
SK-MEL-28 = tested on: SK-MEL-28
SF-268 = tested on: SF-268
OVCAR-8 = tested on: OVCAR-8
SF-295 = tested on: SF-295
DMS-273 = tested on: DMS-273
NCI-H226 = tested on: NCI-H226
MOLT-4 = tested on: MOLT-4
A549 = tested on: A549
KM12 = tested on: KM12
SNB-78 = tested on: SNB-78
UACC-257 = tested on: UACC-257
SK-MEL-5 = tested on: SK-MEL-5
HOP-92 = tested on: HOP-92
DMS-114 = tested on: DMS-114
SW-620 = tested on: SW-620
LXFL 529 = tested on: LXFL 529
ACHN = tested on: ACHN
A498 = tested on: A498
HCT-116 = tested on: HCT-116
HOP-18 = tested on: HOP-18
XF498 = tested on: XF498
NCI-H522 = tested on: NCI-H522
SK-MEL-2 = tested on: SK-MEL-2
SN12C = tested on: SN12C
SNB-19 = tested on: SNB-19
M19-MEL = tested on: M19-MEL
M14 = tested on: M14
SK-OV-3 = tested on: SK-OV-3
HOP-62 = tested on: HOP-62
NCI-H460 = tested on: NCI-H460
COLO 205 = tested on: COLO 205
OVCAR-3 = tested on: OVCAR-3
U-251 = tested on: U-251
OVCAR-4 = tested on: OVCAR-4
SF-539 = tested on: SF-539
SR = tested on: SR
SNB-75 = tested on: SNB-75
DLD-1 = tested on: DLD-1
LOX IMVI = tested on: LOX IMVI
NCI-H23 = tested on: NCI-H23
IGROV-1 = tested on: IGROV-1
RPMI-8226 = tested on: RPMI-8226
OVCAR-5 = tested on: OVCAR-5
KM-20L2 = tested on: KM-20L2
CCRF-CEM = tested on: CCRF-CEM
HCT-15 = tested on: HCT-15
HL-60 = tested on: HL-60
K562 = tested on: K562
HCC 2998 = tested on: HCC 2998

For `CC(=O)OC1C2CCC1C1C2C2(Cl)C(Cl)=C(Cl)C1(Cl)C2(Cl)Cl` (stereo unspecified), the GI50 (RXF 393) was 15.1 µM (inactive), the GI50 (EKVX) was 11.3 µM (inactive) and the GI50 (UO-31) was 12.5 µM (inactive). For the same compound, the GI50 (TK-10) was 15.3 µM (inactive), the GI50 (HT-29) was 12.3 µM (inactive) and the GI50 (786-0) was 14.1 µM (inactive). The GI50 (Malme-3M) was 12.6 µM (inactive), the GI50 (CAKI-1) was 13.8 µM (inactive) and the GI50 (UACC-62) was 12.4 µM (inactive). For the same compound, the GI50 (SK-MEL-28) was 18.2 µM (inactive), the GI50 (SF-268) was 17.7 µM (inactive) and the GI50 (OVCAR-8) was 15.4 µM (inactive). For the same compound, the GI50 (SF-295) was 11.3 µM (inactive), the GI50 (DMS-273) was 12.2 µM (inactive) and the GI50 (NCI-H226) was 13 µM (inactive). The GI50 (MOLT-4) was 11 µM (inactive), the GI50 (A549) was 10.5 µM (inactive) and the GI50 (KM12) was 13 µM (inactive). For the same compound, the GI50 (SNB-78) was 17.4 µM (inactive), the GI50 (UACC-257) was 13.2 µM (inactive) and the GI50 (SK-MEL-5) was 13 µM (inactive). For the same compound, the GI50 (HOP-92) was 11.2 µM (inactive), the GI50 (DMS-114) was 12.6 µM (inactive) and the GI50 (SW-620) was 14.5 µM (inactive). The GI50 (LXFL 529) was 12.5 µM (inactive), the GI50 (ACHN) was 12.2 µM (inactive) and the GI50 (A498) was 13.9 µM (inactive). For the same compound, the GI50 (HCT-116) was 11.2 µM (inactive), the GI50 (HOP-18) was 18.9 µM (inactive) and the GI50 (XF498) was 11 µM (inactive). The GI50 (NCI-H522) was 12.3 µM (inactive), the GI50 (SK-MEL-2) was 10.2 µM (inactive) and the GI50 (SN12C) was 15.1 µM (inactive). The GI50 (SNB-19) was 15.1 µM (inactive), the GI50 (M19-MEL) was 13.3 µM (inactive) and the GI50 (M14) was 12.4 µM (inactive). The GI50 (SK-OV-3) was 16 µM (inactive), the GI50 (HOP-62) was 15.5 µM (inactive) and the GI50 (NCI-H460) was 14.3 µM (inactive). For the same compound, the GI50 (COLO 205) was 15 µM (inactive), the GI50 (OVCAR-3) was 11.4 µM (inactive) and the GI50 (U-251) was 13.3 µM (inactive). The GI50 (OVCAR-4) was 19.7 µM (inactive), the GI50 (SF-539) was 16.6 µM (inactive) and the GI50 (SR) was 9.95 µM (inactive). The GI50 (SNB-75) was 14.7 µM (inactive), the GI50 (DLD-1) was 15.1 µM (inactive) and the GI50 (LOX IMVI) was 15.2 µM (inactive). The GI50 (NCI-H23) was 12.2 µM (inactive), the GI50 (IGROV-1) was 16.4 µM (inactive) and the GI50 (RPMI-8226) was 6.05 µM (inactive). The GI50 (OVCAR-5) was 11.1 µM (inactive) and the GI50 (KM-20L2) was 10.1 µM (inactive).

In the case of `CCN(CC)CCN1CCc2c([nH]c3ccccc23)C1c1cccnc1` (stereo unspecified), the GI50 (CCRF-CEM) is reported as 94.6 µM (inactive), the GI50 (EKVX) is reported as > 100 µM (inactive) and the GI50 (UO-31) is reported as 37.2 µM (inactive). For the same compound, the GI50 (TK-10) was > 100 µM (inactive), the GI50 (HT-29) was > 100 µM (inactive) and the GI50 (HCT-15) was over 100 µM. For the same compound, the GI50 (786-0) was > 100 µM (inactive), the GI50 (CAKI-1) was > 100 µM (inactive) and the GI50 (UACC-62) was > 100 µM (inactive). For the same compound, the GI50 (HL-60) was 99.3 µM (inactive), the GI50 (K562) was 88.9 µM (inactive) and the GI50 (SK-MEL-28) was > 100 µM (inactive). The GI50 (SF-268) was > 100 µM (inactive), the GI50 (OVCAR-8) was > 100 µM (inactive) and the GI50 (SF-295) was > 100 µM (inactive). For the same compound, the GI50 (HCC 2998) was > 100 µM (inactive), the GI50 (DMS-273) was > 100 µM (inactive) and the GI50 (MOLT-4) was > 100 µM (inactive). The GI50 (A549) was > 100 µM (inactive), the GI50 (KM12) was > 100 µM (inactive) and the GI50 (SNB-78) was > 100 µM (inactive). For the same compound, the GI50 (UACC-257) was 37.5 µM (inactive), the GI50 (SK-MEL-5) was > 100 µM (inactive) and the GI50 (HOP-92) was 65 µM (inactive). For the same compound, the GI50 (DMS-114) was > 100 µM (inactive), the GI50 (SW-620) was > 100 µM (inactive) and the GI50 (LXFL 529) was > 100 µM (inactive). For the same compound, the GI50 (ACHN) was > 100 µM (inactive), the GI50 (A498) was > 100 µM (inactive) and the GI50 (HCT-116) was > 100 µM (inactive). For the same compound, the GI50 (HOP-18) was > 100 µM (inactive), the GI50 (XF498) was > 100 µM (inactive) and the GI50 (NCI-H522) was > 100 µM (inactive). For the same compound, the GI50 (SN12C) was > 100 µM (inactive), the GI50 (SNB-19) was > 100 µM (inactive) and the GI50 (M19-MEL) was > 100 µM (inactive). The GI50 (M14) was > 100 µM (inactive), the GI50 (SK-OV-3) was > 100 µM (inactive) and the GI50 (HOP-62) was > 100 µM (inactive). The GI50 (NCI-H460) was > 100 µM (inactive), the GI50 (OVCAR-3) was > 100 µM (inactive) and the GI50 (U-251) was > 100 µM (inactive). The GI50 (OVCAR-4) was > 100 µM (inactive), the GI50 (SF-539) was > 100 µM (inactive) and the GI50 (SR) was > 100 µM (inactive). The GI50 (SNB-75) was 91.4 µM (inactive), the GI50 (DLD-1) was > 100 µM (inactive) and the GI50 (LOX IMVI) was > 100 µM (inactive). For the same compound, the GI50 (NCI-H23) was > 100 µM (inactive), the GI50 (IGROV-1) was > 100 µM (inactive) and the GI50 (RPMI-8226) was > 100 µM (inactive). The GI50 (OVCAR-5) was > 100 µM (inactive) and the GI50 (KM-20L2) was > 100 µM (inactive).
